According to US8501166B2, “Pyrimidinyl indole compounds” (Hutchison Medipharma Limited, priority 2010, dated 2013):

Tests used:
[1] = system: collagen induced arthritis; assay: Collagen induced arthritis (CIA) model in mice; type: in vivo, DBA/1 mice
Experimental: Previous studies have shown that small molecular inhibitors of IKKβ are efficacious in a mouse CIA model (Podolin, P L et al, J. Pharm. Exp. Ther., 2005, 312: 373-381). In addition, mice with T cells expressing a dominant—negative form of IkBa are protected from developing CIA (Seetharaman R. et al. J. Immunol. 1999: 163, 1577-1583). […] Therefore a compound of the present invention is tested in the collagen induced arthritis (CIA) model in mice essentially as described in a method reported in the literature (Rosloniec E F, Cremer M, Kang A, Myers L K. Current Protocols in Immunology. 1996, 15.5.1-15.5.24).
Briefly, DBA/1 mice are immunized intradermally with chicken collagen II (200 μg/mouse) emulsified with Freund's complete adjuvant (CFA, Sigma, US) on day 0 and day 21 to elicit arthritis. The severity of arthritis is assessed using a visual scoring system, in which each paw is graded from 0 to 4 (0=normal, 4=severe swelling of the entire paw). The hind joint thicknesses are measured with a micrometer. The testing compound is orally administered for either prophylactic or therapeutic purposes. For the prophylactic study, the testing compound is orally administered twice daily from day 1 to day 42. For the therapeutic study, the drug treatment is started after the onset of arthritis, which usually occurs within one week of 2nd immunization. Mice are treated with the drug for 21 days. […]

[2] = system: LPS-induced joint TNFα production; assay: LPS-induced acute joint inflammation in rat; type: in vivo, Wistar rats; settings: oral 1 h before intra-articular LPS 10 μg
Experimental: To further investigate the effects of IKKβ inhibitor on mechanism-relevant joint inflammation, the compound is screened for its ability to inhibit the LPS-induced joint acute inflammation in rat essentially as describe by a method reported in the literature (Matsukawa A, Yoshimura T, Miyamoto K, Ohkawara S, Yoshinaga M. Lab Invest. 1997, 76(5):629-38). Briefly, Wistar rats (female, body weight 150 g-170 g) are used in the experiments Animals (8/group) are given 1 to 100 mg/kg of the test compound [suspension in 35% Solutol (Macrogol 15 Hydroxystearate) & 60% PEG400 & 5% PG (propylene glycol)] or vehicle by oral gavage at 1 h prior to intra-articular (i.a.) administration of 10 μg of LPS in 10 μL of saline on left hind knee of each rat, using a 26-gauge needle. The right hind knee of each rat is injected with 10 μL of saline as a control. Two hour after LPS injection, each […] of the rats is lavaged with 100 μL of saline. The synovial fluids are collected and stored at -80° C. The […] is diluted 2 fold with the dilution buffer and 50 μL of the diluted sample is used for the measurement of TNFα levels using R&D System ELISA Kit based on the general Kit protocol. The plate is read on a SPECTRAMAX® M2e Plus Plate Reader and TNFα levels are analyzed using a standard curve. The drug levels are also measured by liquid chromatography-tandem mass spectrometry (LC-MS-MS).

With Cl.O=C(NC1CC1)c1cccc2[nH]c(-c3nc(N[C@@H]4CCC[C@H]4O)ncc3Cl)cc12 [Example 2, 2-{5-Chloro-2-[(1R,2R)-2-hydroxycyclopentylamino]pyrimidin-4-yl}-N-cyclopropyl-1H-indole-4-carboxamide hydrochloride] the “joint swelling and arthritis scores” value ([1]; 10 and 30 mg/kg bid (20 and 60 mg/kg/day)) was “Statistically significant inhibition of joint swelling and reduction of arthritis scores”, the ED50 ([1]; 1008 h, mouse CIA, oral bid for 42 days, read-out: ED50, joint swelling and arthritis scores) was 4.3 mg/kg and the ED50 [2] was 23.4 mg/kg.
